Measured values: patent publication US20100130439A1, “GENOMIC MUTATION INHIBITORS THAT INHIBIT Y FAMILY DNA POLYMERASES” (priority 2007, published 2010)

Columns and labels:
[1] = tested on: ciprofloxacin-resistant mutants; assay: MIC of isolated ciprofloxacin-resistant colonies; format: cell-based, E. coli; details: Escherichia coli
Method: (§1) Characterization of mutants. The MICs were determined of over one hundred isolated antibiotic-resistant colonies. All of the ciprofloxacin-resistant mutants had MICs of 480 ng/mL (FIG. 2B). The ciprofloxacin resistance mutants contained a CG to TA transition translating into a Ser 83→Leu mutation in DNA gyrase. This mutation is known to provide the greatest ciprofloxacin resistance obtainable in a single step (Drlica K, Zhao X (1997) Microbiol Mol Biol Rev 61: 377-392).

[2] = tested on: wild-type MG1655 K12 E. coli; format: cell-based; details: d4T 6 μg/mL
[3] = tested on: most gram-negative bacteria; details: Elwell et al. 1987; cited from earlier work
[4] = tested on: triclosan-resistant mutants; assay: MIC of isolated triclosan-resistant colonies; format: cell-based, E. coli; details: Escherichia coli
Method: as §1
The vast majority of isolated triclosan-resistant mutants (˜85%) had MICs of 16 μg/mL. These colonies had acquired a GC to TA transversion resulting in a Gly 93→Val mutation in FabI, the known protein target of triclosan (FIG. 2B). This mutation is known to produce the greatest triclosan resistance possible via a single step (McMurry L, Oethinger M, Levy S (1998) Nature 394: 531-532). […] It is, therefore, reasonable that the frequency of UV-induced triclosan-resistant mutants is considerably lower (˜8-fold) than the frequency of UV-induced ciprofloxacin-resistant mutants. The remaining triclosan-resistant mutants (˜15%) had MICs between 2-4 μg/mL. These included three different mutations of Phe 203 in FabI: a TA to CG transition giving serine, a TA to GC transversion giving valine, and a TA to GC transversion giving cystine (FIG. 2B). […]

[5] = tested on: wild-type and the isolated mutant cells; assay: MIC of AZT against wild-type and isolated mutant cells; format: cell-based, E. coli
Method: as §1

[6] = tested on: CC 102; assay: MIC of AZT against CC102; format: cell-based, E. coli; details: Escherichia coli, read-out: AZT MIC
Source text: One strain, CC102, required a GC to AT transition.

`O=C(O)c1cn(C2CC2)c2cc(N3CCNCC3)c(F)cc2c1=O` [ciprofloxacin] gave an MIC [1] of 0.48 µg/mL.
In the case of `Cc1cn([C@H]2C=C[C@@H](CO)O2)c(=O)[nH]c1=O` [d4T, 2′,3′-didehydro-3′-deoxythymidine], the “UV-induced generation of mutations that confer resistance to ciprofloxacin” value [2] is given as “inhibits” and the antibacterial activity [3] is given as “antibacterial activity”.
Work on `Oc1cc(Cl)ccc1Oc1ccc(Cl)cc1Cl` [triclosan] yielded an MIC ([4]; remaining (~15%) triclosan-resistant mutants (FabI Phe 203 mutations)) of 2 to 4 µg/mL and an MIC ([4]; vast majority (~85%) of triclosan-resistant mutants (FabI Gly 93→Val)) of 16 µg/mL.
In the case of `Cc1cn([C@H]2C[C@H](N=[N+]=[N-])[C@@H](CO)O2)c(=O)[nH]c1=O` [AZT, 3′-azido-2′-deoxythymidine], the MIC ([5]; both the wild-type and the isolated ciprofloxacin-/triclosan-resistant mutant cells) is reported as 0.01 µg/mL, the “sensitivity to AZT” value ([5]; several rifampicin-resistant mutants) is reported as “varying sensitivities” and the MIC [6] is reported as 0.02 µg/mL. For the same molecule, the antibacterial activity [3] was “antibacterial activity”.
